From the METLIN SMRT retention time set (Domingo-Almenara et al. 2019)

Assay: gradient 5% acetonitrile 3 min, to 50% in 2 min, to 85% in 15 min, held 3 min, 100 µL/min
Conditions: column: Zorbax Extend-C18 2.1 x 50 mm; eluents: water / acetonitrile, 0.1% formic acid
Method in brief: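 Retention time was recorded from adduct peaks, which were picked computationally and each inspected manually. Pure standards ran in mixtures of ~100 molecules on HPLC coupled to a quadrupole time-of-flight mass spectrometer, in positive and negative ionization mode, through a Zorbax Extend-C18 column (2.1 × 50 mm, 1.8 μm) at 100 μL/min. Eluents were water and acetonitrile, each with 0.1% formic acid.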

RP-LC retention time	SMILES
792 s	CC1(C(=O)NCc2ccc(F)cc2)CCCN(C(=O)Nc2ccc3c(c2)OCCO3)C1 (stereo not drawn)
884 s	O=C(NCc1ccc2c(c1)OCCCO2)c1ccc(Br)cc1
681 s	CCC(=O)NCc1csc(C2CCCN(C(=O)C(C)(C)C)C2)n1 (stereo not drawn)
1330 s	Cc1nn(-c2nc(-c3ccc(Cl)cc3)cs2)c(C)c1CC(=O)N1CCc2ccccc2C1
614 s	CCNc1nccc(N2CCC(CC(=O)NCc3ccc(OC)c(OC)c3)CC2)n1
802 s	CCCS(=O)(=O)N1CC(F)(F)C[C@H]1c1nc(-c2cccnc2)no1
773 s	COc1cccc(-c2nc3sc(C(=O)N(C)C)c(C)n3c2NC(C)(C)C)c1
998 s	Cc1ccc(Cn2c(=O)c(N3CCN(C(=O)C4CCCO4)CC3)nc3cccnc32)cc1 (stereo not drawn)
618 s	CCOC(=O)c1c(S(=O)(=O)NCC(=O)N2CCN(c3ccccn3)CC2)c(C)n(C)c1C
928 s	COc1cc(-c2noc(-c3nn(-c4ccc(C)c(C)c4)ccc3=O)n2)cc(OC)c1OC
621 s	O=C(Nc1ccc(Cn2cncn2)cc1)c1ccoc1
919 s	O=C1[C@H]2CN(Cc3cccc(F)c3F)C[C@H]2C(=O)N1Cc1ccc2c(c1)OCO2
798 s	O=C(C(=O)N1CCOCC1)c1c(-c2ccccc2)cc2ccccn12
808 s	O=c1c(S(=O)(=O)N2CCCC2)cccn1Cc1nc(-c2ccccc2Cl)no1
920 s	CCCCCNC(=O)C1CCN(S(C)(=O)=O)c2cc(Cl)ccc2O1 (stereo not drawn)
672 s	Cn1cc(-c2ccc(F)cc2)cc1C(=O)NCCN1CCCCC1
693 s	CCCCC(=O)N1CCN(c2cc(C)nc(Nc3ccc(C)cc3)n2)CC1
926 s	CCOc1ccc(-c2noc(CN3N=NC4C(=O)N(c5cccc(F)c5)C(=O)C43)n2)cc1OC (stereo not drawn)
596 s	Cc1ccnc(OCC(=O)NCCNc2cc(-n3nc(C)cc3C)nc(C)n2)n1
844 s	CCOc1ccccc1N1CCN(C(=O)Cn2ccc3c(c(C)nn3-c3ccccc3)c2=O)CC1
732 s	O=C(NCCS(=O)(=O)N1CCc2ccccc2C1)C1CC(=O)N(c2ccc(F)cc2)C1 (stereo not drawn)
674 s	CCOc1ccc(C(=O)NCc2nnc3n2CCCC3)cc1OCC

RP-LC retention time	SMILES
794 s	COc1ccc(-c2noc(Cn3ccn(-c4ccccc4)c(=O)c3=O)n2)cc1
778 s	CCOC(=O)C1CCN(c2cc3c(cc2NC(=O)NC(C)CC)n(C)c(=O)n3C)CC1 (stereo not drawn)
840 s	CC(C)(C)NC(=O)c1ccc(C(=O)NC(C)(C)C)cc1
758 s	Cc1c(Cl)cccc1Nc1c(-c2ccc(N3CCOCC3)cc2)nc2ncccn12
868 s	Cc1oc(C2CCN(C(=O)c3ccc(F)c(Cl)c3)CC2)nc1C(=O)N1CCCCC1
858 s	O=C(Cn1c(=O)c2cccn2c2ccc(F)cc21)Nc1ccccc1F
755 s	O=C(Nc1ccc2c(c1)CCN(Cc1ncn[nH]1)C2)c1ccccc1-c1ccc(C(F)(F)F)cc1
792 s	O=C1[C@H]2CN(Cc3ccccc3F)C[C@H]2C(=O)N1Cc1ccc2c(c1)OCO2
682 s	O=C(NC1CCCC1)C1CCN(S(=O)(=O)c2cc(C(=O)N3CCOCC3)cs2)CC1
824 s	CCOC(=O)C1=C(C)N(CC(=O)N2CCCC2)c2ncnn2C1c1ccc(C)cc1 (stereo not drawn)
855 s	CSc1ccccc1N1CCN(CCCCCC(=O)NC2CCCc3ccccc32)CC1 (stereo not drawn)
993 s	Cc1cc(Br)ccc1NC(=O)c1cc2n(n1)CCCC2
663 s	CCCNC(=O)C1CCN(c2ccc(SCC(=O)NCCc3ccc(Cl)cc3)nn2)CC1
976 s	CCOc1ccc(-c2nc(NC(=O)c3sc(C)nc3C)sc2C)cc1
721 s	COc1ccc(S(=O)(=O)N2C[C@H](F)C[C@@H]2C(=O)N2CCOCC2)cc1Cl
1050 s	COc1ccc(NC(=O)C2CCCN(c3nccnc3Sc3ccccc3)C2)cc1F (stereo not drawn)
788 s	CCc1cc(=O)n(CC(=O)Nc2cccc(Cl)c2)c(N2CCOCC2)n1
596 s	COc1cc(NC(=O)Nc2cccc(-c3nccnc3N3CCCC3)c2)cc(OC)c1
569 s	COc1ccc(-c2ncccc2CNC(=O)C2CC2)cc1
927 s	O=c1ccc(-c2ccc3c(c2)OCO3)nn1CCc1nc(-c2ccc(F)cc2)no1
821 s	Cc1ccc(NS(=O)(=O)c2n[nH]c(C)c2C(=O)NCc2ccc(F)cc2F)cc1
720 s	O=C(CN1CCC(c2nc(-c3ccc(F)cc3)no2)CC1)Nc1ccc2c(c1)OCO2

RP-LC retention time	SMILES
614 s	CC1CCc2[nH]nc(C(N)=O)c2C1 (stereo not drawn)
955 s	Cc1ccc2[nH]cc(CCNC(=O)COc3ccc(Cl)cc3)c2c1
840 s	CN(C)S(=O)(=O)c1ccc(-c2nnc(C(=O)NCc3ccccc3F)o2)cc1
667 s	Cc1ccc(C(=O)N2CCN(c3nnc4cccc(C)n34)CC2)cc1F
612 s	COc1ccc(NC(=O)NCCc2cn(C)c3ncccc23)cc1OC
1050 s	Cc1ccc(-c2nnc(Cc3nc(-c4ccc(F)cc4)no3)o2)cc1
1320 s	O=C(COc1ccccc1)Nc1ccccc1-c1nc2ccccc2s1
640 s	CCCN1C(=O)c2c(C(=O)OC)ncn2CC1(C)C(=O)NCc1ccccc1 (stereo not drawn)
1100 s	Cc1nn(-c2ccccc2)c(C)c1S(=O)(=O)N1CCC(C(=O)Nc2ccc(C(C)C)cc2)CC1
591 s	COc1cccc(CCC(=O)N2CCN(C3=NC=CN4CC(C)N=C34)CC2)c1 (stereo not drawn)
1060 s	CCc1nc(-c2csc(S(=O)(=O)N3CCCC(C(=O)Nc4cccc(C)c4C)C3)c2)no1 (stereo not drawn)
1010 s	Cc1cc(C)c(S(=O)(=O)N2CCC(C)(C(=O)NCc3ccc4c(c3)OCO4)CC2)cc1C
1180 s	Cc1cc(OCC(=O)Nc2nc(-c3ccccc3)cs2)ccc1Cl
819 s	O=C(NCc1ccccc1F)C1CCN(C(=O)c2ncn3c2COC(c2ccc(Cl)cc2)C3)CC1 (stereo not drawn)
652 s	O=C(Cn1ncc2c(N3CCN(c4ccccn4)CC3)ncnc21)Nc1ccc(Br)cc1
624 s	Cc1ccc(-c2noc(Cn3ccnc3)n2)cc1
718 s	CC(C)NC(=O)c1cnn2c(-c3ccccn3)ccnc12
1070 s	Cc1ccc2c(c1)OCC(=O)N2Cc1nc(-c2cccc(F)c2)no1
923 s	O=C1NC(=O)/C(=C/c2ccc(-c3ccc(F)cc3O)o2)S1
729 s	CCOC(=O)C1CCN(C(=O)CCc2cc3cc(C)ccc3[nH]c2=O)CC1
594 s	CCOc1ccccc1NC(=O)NC1CCN(c2cc(N3CCCC3)cnn2)C1 (stereo not drawn)
636 s	O=C(c1ccc2ncnc(N3CCCCC3)c2c1)N1CCCCC1

RP-LC retention time	SMILES
764 s	COc1cccc(N2CCN(C(=O)C3CCN(S(=O)(=O)c4cn(C(C)C)cn4)CC3)CC2)c1
709 s	O=C([C@@H]1C[C@H](Oc2ccccc2)CN1C1CCOCC1)N1CCc2ccccc21
1230 s	CCOc1ccc(C2Cn3nnc(-c4nc(-c5ccccc5Br)no4)c3CO2)cc1 (stereo not drawn)
991 s	Fc1ccc(-c2noc(Cc3nnc(-c4ccc(F)cc4)o3)n2)cc1
1000 s	CC(C)Sc1nnc(N2CCN(c3ccc(F)cc3)CC2)s1
847 s	COc1cc2c(cc1OC)CN(C(=O)c1cc(-c3ccc(F)cc3)c[nH]1)CC2
925 s	CCCS(=O)(=O)N1CC(=O)N(c2ccc(F)cc2C)C(C)(C(=O)NC2CCCCC2)C1 (stereo not drawn)
734 s	Cc1nc(CC(=O)NC2CCCC2)sc1C(=O)NCc1ccccc1
688 s	Cc1cccc(NC(=O)Cn2cnc3nc(N4CCCC(C(=O)NC5CC5)C4)sc3c2=O)c1C (stereo not drawn)
830 s	CCn1cc(-c2nc(-c3ccc(OC)cc3OC)no2)c(=O)c2cc(F)ccc21
967 s	CCOC(=O)c1ccc(NC(=O)C2CCN(c3c(C(=O)N(CC)CC)cnc4snc(C)c34)CC2)cc1
740 s	CNC(=O)C1CN(C(=O)Cc2cccc(Cl)c2)CC12CCCC2 (stereo not drawn)
1290 s	COc1ccc(-c2noc(-c3cccnc3N3CCN(c4ccccc4)CC3)n2)cc1
572 s	CC1CCN(c2cc(-c3noc(C(=O)NCCN4CCOCC4)n3)ccn2)CC1
681 s	O=C(C1CCCCCC1)N1CCC2(CC1)CC(O)CCO2 (stereo not drawn)
923 s	O=C(Nc1cccc(C(F)(F)F)c1)NC1CCN(c2ccc(F)cc2)C1=O (stereo not drawn)
615 s	CC(C)(C)C(=O)Nc1ccc(N2CCC(N3CCCCC3)CC2)cc1C(=O)O
852 s	Cc1cc(C(F)F)n2nc(C(=O)Nc3cc(F)ccc3C)nc2n1
593 s	Cc1cccc2c(C(=O)NC3CC3)cc(N3CCCC3)nc12
631 s	CN1CCC2(CC1)CN(S(=O)(=O)N(C)C)CC2C(=O)N1CCc2ccccc21 (stereo not drawn)
693 s	Cc1ccc(CNC(=O)c2ccc3c(c2)CC(=O)N3C)o1
888 s	COc1ccc(N2CCN(c3nccc4ccc(C(=O)NCCC5=CCCCC5)cc34)CC2)cc1
